Test results taken from paper PMC7957578, “N-(1,3,4-Oxadiazol-2-yl)Benzamides as Antibacterial Agents against Neisseria gonorrhoeae” (International Journal of Molecular Sciences, 2021).
In brackets after ≈: the same amount, converted by molar mass. Read-outs that look alike come from different tables or passages of the source.

Assays:
N. gonorrhoeae 165 = assay: MIC/MBC against N. gonorrhoeae clinical isolate 165; format: cell-based; conditions: Neisseria gonorrhoeae
Procedure: (§1) Briefly, bacteria were grown overnight on chocolate agar II at 37° C in the presence of 5% CO2. Afterwards, a bacterial suspension equivalent to 1.0 McFarland standard was prepared and diluted in brucella broth supplemented with yeast extract, neopeptone, hematin, pyridoxal, and NAD. Test agents were added in the first row of the 96-well plates and serially diluted along the plates. Plates were then incubated at 37° C in the presence of 5% CO2 for 24 h. […] Plates were then incubated at 37 ° C in the presence of 5% CO2 for 24 h. The MBC was categorized as the lowest concentration that reduced bacterial growth by 99.9% [45, 46, 47].

N. gonorrhoeae 166 = assay: MIC/MBC against N. gonorrhoeae clinical isolate 166; format: cell-based; conditions: Neisseria gonorrhoeae
Procedure: as §1

N. gonorrhoeae 194 = assay: MIC/MBC against N. gonorrhoeae clinical isolate 194; format: cell-based; conditions: Neisseria gonorrhoeae
Procedure: as §1

N. gonorrhoeae 200 = assay: MIC/MBC against N. gonorrhoeae clinical isolate 200; format: cell-based; conditions: Neisseria gonorrhoeae
Procedure: as §1

N. gonorrhoeae WHO L = assay: MIC/MBC against N. gonorrhoeae WHO L reference strain; format: cell-based; conditions: Neisseria gonorrhoeae
Procedure: as §1

[1] = system: panel drug-resistant pathogenic N. gonorrhoeae strains; assay: MIC/MBC against a panel of drug-resistant N. gonorrhoeae strains; format: cell-based, Neisseria gonorrhoeae; conditions: MBC the same as or one-fold higher than MIC
VRE. faecalisATCC 51575 = assay: MIC/MBC (CLSI broth microdilution) against VRE faecalis ATCC 51575; format: cell-based; conditions: Enterococcus, VRE faecalis ATCC 51575
Procedure: (§2) The minimum inhibitory concentrations (MICs) of the tested compounds and control drugs, linezolid, vancomycin, and gentamicin, were determined using the broth microdilution method according to the guidelines outlined by the Clinical and Laboratory Standards Institute (CLSI) against clinically relevant bacterial (Staphylococcus aureus, MRSA, Escherichia coli, Enterococcus faecalis and Enterococcus faecium strains. S. aureus, MRSA, E. coli, Enterococcus faecalis and Enterococcus faecium were grown aerobically overnight on tryptone soy agar (TSA) plates at 37° C. Afterwards, a bacterial solution equivalent to 0.5 McFarland standard was prepared and diluted in cation-adjusted Mueller–Hinton broth (CAMHB) (for S. aureus, MRSA, and E. coli) to achieve a bacterial concentration of about 5 × 10^5 CFU/mL. Enterococcus faecalis and Enterococcus faecium 0.5 McFarland standard solution was diluted in tryptone soy broth (TSB) to achieve a bacterial concentration of about 5 × 10^5 CFU/mL. Compounds and control drugs were added in the first row of 96-well plates and serially diluted with the corresponding media containing bacteria. Plates were then incubated as previously described. […] The minimum bactericidal concentration (MBC) was tested by spotting 4 µL from wells with no growth onto TSA plates. Plates were incubated at 37 ° C for at least 18 h before recording the MBC. The MBC was categorized as the lowest concentration that reduced bacterial growth by 99.9% [45, 46, 47].

VRE. faecalis ATCC 51299 = assay: MIC/MBC (CLSI broth microdilution) against VRE faecalis ATCC 51299; format: cell-based; conditions: Enterococcus, VRE faecalis ATCC 51299
Procedure: as §2

VRE. faecium ATCC 700221 = assay: MIC/MBC (CLSI broth microdilution) against VRE faecium ATCC 700221; format: cell-based; conditions: Enterococcus, VRE faecium ATCC 700221
Procedure: as §2

[2] = system: E. coli BW25113 (wild-type strain); assay: MIC/MBC (CLSI broth microdilution) against E. coli BW25113 wild type; format: cell-based, Escherichia coli; conditions: E. coli BW25113 wild-type strain
Procedure: as §2

[3] = system: E. coli JW55031 (TolC Mutant); assay: MIC/MBC (CLSI broth microdilution) against E. coli TolC mutant; format: cell-based; conditions: Escherichia coli
Procedure: as §2

N. gonorrhoeae = assay: MIC against N. gonorrhoeae in presence of fetal bovine serum; format: cell-based; conditions: Neisseria gonorrhoeae, 24 h
[4] = system: human colorectal cells (Caco-2); assay: In vitro cytotoxicity, MTS assay; format: cell-based
Procedure: HSGN-237 and -238 were assayed for potential cytotoxicity against a human colorectal adenocarcinoma (Caco-2) cell line, as described previously. Briefly, tested compounds were incubated with caco-2 cells for 24 and 48 h. Then, the cells were incubated with MTS (3-(4,5-dimethylthiazol-2-yl)-5-(3-carboxymethoxyphenyl)-2-(4-sulfophenyl)-2H-tetrazolium) reagent for 4 h before measuring the absorbance values (OD490).
Figure 2 In vitro cytotoxicity assessment of HSGN-237 and -238 (tested in triplicate) against human colorectal cells (Caco-2) after (A) 24 h, and (B) 48 h, using the 3-(4,5-dimethylthiazol-2-yl)-5-(3-carboxymethoxyphenyl)-2-(4-sulfophenyl)-2H-tetrazolium (MTS) assay. Results are presented as percent viable cells relative to DMSO (negative control). Error bars represent standard deviation values. A two-way ANOVA, with post hoc Dunnet’s multiple comparisons test, determined the statistical difference between the values obtained for the compound and DMSO. Asterisks denote statistically significant differences between treatments of cells with either HSGN-237 or -238 as compared to DMSO-treated cells. The experiment was repeated 3 independent times.

[5] = Caco-2 bidirectional permeability assay; format: in vitro ADME, human; conditions: human, Caco-2
Source text: (§3) Oral bioavailability is a highly important consideration when developing bioactive molecules as therapeutic agents. A critical factor of oral bioavailability is human intestinal absorption. The Caco-2 bidirectional permeability assay is the most widely used in vitro model for predicting if a bioactive molecule can have adequate systemic absorption. Thus, we selected HSGN-238 to act as a model to analyze the drug-like properties of newly synthesized N-(1,3,4-oxadiazol-2-yl)benzamides.
(§4) Assay and data analysis were performed by Eurofins Panlabs (MO, USA) according to a previously reported protocol. The apparent permeability coefficient (Papp) of the tested agents was calculated using the equation below: Papp(cm/s)=VR∗CR,end/Δt∗1/A∗(CD,mid−CR,mid), where VR is the volume of the receiver chamber. CR,end is the concentration of the test compound in the receiver chamber at the end time point, Δt is the incubation time, and A is the surface area of the cell monolayer. CD,mid is the calculated mid-point concentration of the test compound in the donor side, which is the mean value of the donor concentration at 0 minutes and the donor concentration at the end time point. CR,mid is the mid-point concentration of the test compound in the receiver side, which is one half of the receiver concentration at the end time point. Concentrations of the test compound were expressed as peak areas of the test compound.

Caco-2 bilayers = assay: Caco-2 bidirectional permeability assay; format: in vitro ADME, human; conditions: Caco-2 permeability classification
Source text: as §3, §4

## O=C(Nc1nnc(-c2ccc(Cl)s2)o1)c1ccc(OC(F)(F)F)cc1 [HSGN-238, N-(5-(5-Chlorothiophen-2-yl)-1,3,4-oxadiazol-2-yl)-4-(trifluoromethoxy)benzamide]
N. gonorrhoeae 165
  MBC: 0.25 µg/mL (≈ 0.641 µM)
  MIC: 0.125 µg/mL (≈ 0.321 µM)
N. gonorrhoeae 166
  MBC: 0.25 µg/mL (≈ 0.641 µM)
  MIC: 0.125 µg/mL (≈ 0.321 µM)
N. gonorrhoeae 194
  MBC: 0.125 µg/mL (≈ 0.321 µM)
  MIC: 0.125 µg/mL (≈ 0.321 µM)
N. gonorrhoeae 200
  MBC: 0.125 µg/mL (≈ 0.321 µM)
  MIC: 0.125 µg/mL (≈ 0.321 µM)
N. gonorrhoeae WHO L
  MBC: 0.125 µg/mL (≈ 0.321 µM)
  MIC: 0.06 µg/mL (≈ 0.154 µM)
[1]
  type of activity from MBC versus MIC: bactericidal activity
VRE. faecalisATCC 51575; read-out: MBC
  MBC: 32 µg/mL (≈ 82.1 µM)
VRE. faecalisATCC 51575; read-out: MIC
  MIC: 1 µg/mL (≈ 2.57 µM)
VRE. faecalis ATCC 51299; read-out: MBC
  MBC: 8 µg/mL (≈ 20.5 µM)
VRE. faecalis ATCC 51299; read-out: MIC
  MIC: 0.25 µg/mL (≈ 0.641 µM)
VRE. faecium ATCC 700221; read-out: MBC
  MBC: 8 µg/mL (≈ 20.5 µM)
VRE. faecium ATCC 700221; read-out: MIC
  MIC: 0.25 µg/mL (≈ 0.641 µM)
[2]
  MIC: >8 µg/mL
[2]; Escherichia coli, read-out: MBC
  MBC: > 8 µg/mL
[2]; Escherichia coli, read-out: MIC
  MIC: > 8 µg/mL
[3]
  MBC: 32 µg/mL (≈ 82.1 µM)
  MIC: 0.06 µg/mL (≈ 0.154 µM)
N. gonorrhoeae; 1% FBS added to the media
  MIC: 0.25 µg/mL
N. gonorrhoeae; 5% FBS added to the media
  MIC: 1 µg/mL
N. gonorrhoeae; 10% FBS added to the media
  MIC: 1 µg/mL
[4]; Caco-2 cells, 24 and 48 h, MTS assay
  non-toxic concentration: up to 16 µg/mL
[4]; Caco-2 non-toxic concentration versus corresponding MIC
  non-toxic concentration relative to MIC against N. gonorrhoeae: 128 times
[5]; apical to basolateral
  Papp A→B: 82.3 ×10⁻⁶ cm/s
[5]; basolateral to apical
  Papp B→A: 32.9 ×10⁻⁶ cm/s
Caco-2 bilayers
  Notes (permeability class): High Permeability
